Test results from patent US5466689A, “Morpholine derivatives and their use” (Takeda Chemical Industries, Ltd., priority 1993, dated 1995).

Columns and labels:
Substance-P = experiment: Action of Substance-P for inhibiting biting response by its administration at subarachnoid space; assay type: in vivo, Jcl:ICR mice; settings: mice; dosage 10 μg/mouse; SP 10 ng/5 μl/mouse at subarachnoid space; bitings counted for one minute
Experimental: Action of Substance-P for inhibiting biting response by its administration at subarachnoid space
Five-week old male Jcl:ICR mice (10 animals per group) were employed. Dorsal cutaneous incisions were made under anesthesia at least one hour before the experiments. Substance-P (SP) was administered in an amount of 10 ng/5 μl/mouse at the subarachnoid space of the spinal cord. Then the test animals started to bite themselves at the abdomen alternately. The number of bitings was counted for one minute immediately after the SP administration. The values thus obtained were made indexes of pseudo pain reflexes caused by SP.
Test drugs were dissolved in a solution (Tween 80:ethanol:physiological saline=20:10:70) together with a given amount of SP. The solutions thus prepared were administered to test animals. In the case of oral administration, 5% suspension of gum arabica was employed, which was administered at 30 minutes before the SP administration.
The inhibition rate (%) of each sample was calculated by the following formula. Inhibition rate (%)=(number of counts in the control group-numberof counts in each sample)/(number of counts in the control group)×100.
And, 50% inhibition dose (ID50) was calculated from the primary linear regression line of dose-dependent curve.

Writhing = experiment: Acetic acid-writhing method; assay type: in vivo, Slc:ICR mice; settings: mice, 0.6% acetic acid i.p. 30 min later, writhing during 20 minutes
Experimental: Acetic acid-writhing method
Male Slc:ICR mice of four-week old (10 animals per group) were employed. Test compounds were orally administered. Thirty minutes later, purified water containing 0.6% acetic acid was injected intraperitoneally (0.1 ml/10 g body weight). Writhing shown by the test animals during 20 minutes was observed on individual animals.
On each test animal, the inhibition rate against the average response times in the control group was calculated. The test compound was administered as a 5% suspension of gum arabica.

[1] = acute toxicity (LD50), oral, rats; settings: rat, in vivo, orally administered to rats
Excerpt: Therefore, the compounds of this invention and their salts can be used for prophylaxis or therapy of diseases including pain due to bone diseases (arthritis, rheumatic fever, osteoporosis), pain induced by cancer or the like, lumbago, postoperative pain, neuralgia, pain induced by inflammatory diseases, pain caused by tooth extraction, tooth-ache and pain due to burn trauma, as well as neurosis (e.g. anxiety neurosis, depression, mental disorder), somnipathy or the like. Since the compounds of this invention act on a neurotransmitting system such as dopamine or norepinephrine, they can be used also as prophylactic and therapeutic drugs for circulatory diseases (e.g. hypertension).

Row | SMILES | Inhibition rate (%), antagonistic action to Substance-P (biting response) (Substance-P) [%] | Inhibition rate (%), analgesic action (writhing) (Writhing; 25 mg/kg,p.o.) [%] | LD50 [1] [mg/kg] | Inhibition rate (%), analgesic action (writhing) (Writhing; 12.5 mg/kg,p.o.) [%]
1 | C=C[C@]12OCCN(CC)[C@@H]1Cc1c[nH]c3cccc2c13 (relative stereo) [Example 1, Trans-4,6,6a,8,9,10a-hexahydro-7-ethyl-10a-vinyl-7H-indolo[3,4-gh][1.4]benzoxazine] | 80 | – | – | –
2 | CCN1CCO[C@]2(C)c3c(OC)ccc4[nH]cc(c34)C[C@@H]12 (relative stereo) [Example 2, Trans-4,6,6a,8,9,10a-hexahydro-7-ethyl-1-methoxy-10a-methyl-7H-indole[3,4-gh][1.4]benzoxazine] | 100 | 99 | ≥ 100 | –
3 | CCN1CCO[C@]2(C)c3cccc4[nH]cc(c34)C[C@@H]12 (relative stereo) [Example 8, Trans-4,6,6a,8,9,10a-hexahydro-7-ethyl-10a-methyl-7H-indolo[3,4-gh][1,4]benzoxazine] | 65 | – | – | 61
